Assay results from patent US10214762B2, “Cell differentiation devices and methods” (GEORGIA TECH RESEARCH CORPORATION, priority 2014, dated 2019).

Experiments:
[1] = tested on: E. Coli strain (ATCC 43888); assay: three-channel, six-chamber microfluidic chemotaxis assay; format: cell-based, Escherichia coli
Method: PBS, Tris and LB were autoclaved before use. E Coli strain (ATCC 43888) was obtained from Fisher Scientific (Pittsburgh, Pa.). All cultures were grown in 10 mL of LB incubated at 37° C. for approximately 4 hours until the optical density of sample at wavelength of 600 nm reached 0.8. Optical density at 600 nm was measured for cell culture quantification.
An exemplary device described and depicted herein consists of a center channel that delivers a bacteria sample from a small reservoir to the central interaction region, where the channel is perpendicularly connected to six chambers. […] These channels serve as a source for generating a chemical gradient in the chambers. A nitrocellulose membrane (Millipore type GSTF) with a 0.22 μm pore size serves as a porous medium that separates the side channels from the chambers while allowing chemicals to diffuse through to the chambers. The pore size of 0.22 μm was selected as an exemplary pore size to ensure chemical axial flow through the porous nitrocellulose substrate, while prohibiting the passage of the cells or analyte to be analyzed through the porous substrate. Other pore sizes may be utilized depending on the type of assay and cells or analyte to be analyzed are contemplated herein.
The same volume of buffer saline was taken back through the filter into the syringe; suspending the cells in the buffer saline medium. This process was repeated three times to ensure the complete exchange of growth medium with buffer saline. The bacterial motility was not affected.
The microfluidic device was prepared as follow. The top glass assembly was properly cleaned and reused for many experiments, while the membrane and the bottom glass were renewed for each experiment. Acetone, isopropanol, and DI water were used to effectively clean the top glass and reservoirs. The membrane layer was soaked entirely in buffer solution for 30 min before use to ensure the removal of all air bubbles. The soaked membrane was then aligned with the inlet/outlet ports on the top glass and sandwiched between the top glass and another glass slide using 6 small stainless steel clips that provide constant and consistent pressure over the entire membrane area, as shown in FIG. 3.
After the device assembly, the input reservoirs were filled with buffer and the output reservoirs were vacuumed for a few seconds, the strong resulting flow expels all possible bubbles from the microfluidic system. The channels were inspected under microscope before conducting tests. All the experiments were conducted at least for three times to determine reproducibility. The bacterial chemotaxis experiments were conducted at an ambient temperature of 36° C.
Chemotactic response of cells to a chemical gradient was tested in another set of experiments. […]

[2] = tested on: E Coli; conditions: agarose gel diffusive medium; cited from earlier work
[3] = capillary assay; cited from earlier work
[4] = tested on: E Coli; conditions: about 20 mM aspartic acid; cited from earlier work

Row | SMILES | ratio of bacteria count in the buffer chambers to the repellent side chambers ([1]; 0.5 mM NiCl2 as repellent, Tris Buffered Saline) | motility of the cells after introducing the repellent ([1]; due to an increase in tumbling frequency) | concentration generating the maximum chemotactic response [2] [mM] | peak concentration for chemotaxis [3] | chemotactic index (peak response) [4] | chemotaxis index (IC) ([1]; 0.5 mM aspartic acid in PBS buffer as attractant, cells in attractant chambers vs buffer side chambers, about 30 min) | aspartic acid concentration giving a more significant chemotactic response ([1]; different aspartic acid concentrations tried) [mM]
1 | [Cl][Ni][Cl] [NiCl2, nickel chloride] | more than 8 times | reduced to some degree |  |  |  |  | 
2 | N[C@@H](CC(=O)O)C(=O)O [aspartic acid, L-aspartic acid] |  |  | 0.5 | about 10 mM | 1.74 | 4 | 0.5
